Test results from paper PMC7183711, “Co-production of gallic acid and a novel cell-associated tannase by a pigment-producing yeast, Sporidiobolus ruineniae A45.2” (Microbial Cell Factories, 2020).

System: T1, purified tannase (PT); cell-associated tannase (CAT) of Sporidiobolus ruineniae A45.2
T1 construct: gene tannin acyl hydrolase; native enzyme released from cell wall with Triton X-100, Q-Sepharose purified
Experiment: rhodanine assay of released gallic acid, A520; Michaelis-Menten fit
Assay type: biochemical, Rhodosporidiobolus ruineniae
Settings: 100 mM sodium phosphate pH 6.5, 30 °C, 10 min; 0.25-12.5 mM methyl gallate; purified free enzyme

SMILES: COC(=O)c1cc(O)c(O)c(O)c1 [methyl gallate]
- Km: 2600 ± 400 µM
